Patent publication US20130085161A1, “PIPERIDINYL SUBSTITUTED 1,3-DIHYDRO-BENZOIMIDAZOL-2-YLIDENEAMINE DERIVATIVES” (NOVARTIS AG, priority 2010, published 2013)

These compounds were tested against T1, BaF3-Tel-IGF1-R (Homo sapiens, UniProt P08069) (assay: BaF3 cell viability assay (resazurin), 384-well format). Conditions: 384-well plate format; 48 h incubation; resazurin dye reduction; cell proliferation/viability.
T1 construct: the kinase domain of IGF-1R (aa 976-1367) linked by a Ser-Arg-linker; expressed in transfected cells; host or cells: BaF3 murine proB-cell lymphoma cells, stably transduced
T1 sequence (P08069 976-1367): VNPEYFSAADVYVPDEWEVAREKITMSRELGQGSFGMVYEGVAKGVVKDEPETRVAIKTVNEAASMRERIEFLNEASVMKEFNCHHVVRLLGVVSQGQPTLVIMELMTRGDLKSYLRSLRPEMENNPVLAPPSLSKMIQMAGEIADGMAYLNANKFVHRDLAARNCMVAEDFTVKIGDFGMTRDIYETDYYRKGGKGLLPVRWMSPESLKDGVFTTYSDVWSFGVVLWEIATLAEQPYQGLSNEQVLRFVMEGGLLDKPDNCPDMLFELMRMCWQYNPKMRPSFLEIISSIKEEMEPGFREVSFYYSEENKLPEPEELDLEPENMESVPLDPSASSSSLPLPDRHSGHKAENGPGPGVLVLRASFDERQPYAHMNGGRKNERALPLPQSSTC
Assay type: cell-based
Source text: BaF3-Tel-IGF1-R and BaF3-InsR are BaF3 murine proB-cell lymphoma cell derivatives [the BaF3 cell line (also termed Ba/F3) is available from the German Collection of Microorganisms and Cell Cultures (DSMZ), Braunschweig, Germany] that have been rendered IL-3-independent by stable transduction with kinase-activating fusions between human TEL (aa 1-452) and the kinase domain of IGF-1R (aa 976-1367) linked by a Ser-Arg-linker (Boulay et al, Cancer Res 68, 3743-3751, 2008), and a fusion between human TEL (aa 1-337) and the kinase domain (aa 1015-1382) of the Insulin receptor (Melnick J S et al, Proc Natl Acad Sci USA 103, 3153-3158, 2006), respectively. Cells are cultured in RPMI-1640 (Animed #1-14F01-1) supplemented with 2% L-glutamine (Animed #5-10K50-H) and 10% fetal calf serum (FCS, Animed #2-01F16-I). Wild-type, untransfected BaF3 cells are maintained in above medium plus 10 U/ml IL-3 (mouse Interleukin-3, Roche #1380745 or Invitrogen # PMC0035) and are used to identify non-selective, generally growth-inhibitory compounds. Cells (1.5×10^4 cells per well) are seeded in 190 μl fresh medium into 96-well plates. 10 μl 20× compound solutions are added. As internal control, the kinase inhibitor PKC412 is routinely used. Control cells treated with DMSO (0.1% final concentration) serve as growth reference (set as 100% growth). In addition, a plate blank value is routinely determined in a well containing only […] of medium and no cells. IC50 determinations are performed based on eight 3-fold serial dilutions of the test compound, starting at 10 μM. Following incubation of the cells for 48 h at 37° C. and 5% CO2, the effect of inhibitors on cell viability is assessed by the resazurin sodium salt dye reduction assay (commercially known as AlamarBlue assay) basically as previously described (O'Brien J. et al., Eur. J. Biochem. 267: 5421-5426, 2000). Briefly, 20 μl dye solution is added per well and the plates incubated for 6 h at 37° C. and 5% CO2. Thereafter, fluorescence is measured using a Saphirell 96-well plate reader (TECAN, Männedorf, Switzerland) with the following settings: Excitation 544 nm and Emission 590 nm. For data analysis, the plate blank value is subtracted from all data points. The effect of a particular test compound concentration on cell proliferation and viability is expressed as percentage of the blank-corrected reading obtained for cells treated with vehicle only, which is set as 100%. IC50 values can be determined using XLfit (V4.2), applying standard four parameter logistic model #205 (IDBS, Guilford, UK) or other common curve-fitting software.
To achieve a higher throughput, the cell viability assay can also be performed in a 384-well format. Briefly, 4′500 freshly diluted cells are seeded in 54 μl/well into 384-well plates using a liquid dispenser. 6 μl 10× compound solution is added to the cell plate. As internal control, the kinase inhibitor PKC412 is routinely used. Control cells treated with DMSO (0.1% final concentration) serve as growth reference (set as 100% growth). In addition, a plate blank value is routinely determined in a well containing only 60 μl of medium and no cells. Dose-response effects are determined by 3-fold serial compound dilutions, starting at 10 μM. Following incubation of the cells for 48 h at 37° C. and 5% CO2, the effect of compounds on cell proliferation/viability is assessed by addition of 6 μl resazurin sodium salt dye solution per well. Following incubation for an additional 6 hrs at 37° C. and 5% CO2, fluorescence is measured using an Infiniti M1000 microplate reader (TECAN, Männedorf, Switzerland) with excitation and emission wavelengths set at 544 and 590 nm, respectively. For data analysis, the plate blank value is subtracted from all data points. IC50 values can be determined by four parameter logistic fitting as described above.

Row | Structure (SMILES) | IC50 [nM]
1 | CC(=O)Nc1ccc(Cl)cc1N1CCC(n2c(=N)n(Cc3cccc4[nH]nnc34)c3ccccc32)CC1 [Example 60, N-(2-{4-[3-(1H-Benzotriazol-4-ylmethyl)-2-imino-2,3-dihydro-benzoimidazol-1-yl]-piperidin-1-yl}-4-chloro-phenyl)-acetamide] | 64
2 | CC(=O)Nc1ccc(Cl)cc1N1CCC(n2c(=N)n(Cc3ccccc3Cl)c3ccc(F)cc32)CC1 [Example 62, N-(4-Chloro-2-{4-[3-(2-chloro-benzyl)-6-fluoro-2-imino-2,3-dihydro-benzoimidazol-1-yl]-piperidin-1-yl}-phenyl)-acetamide] | 36
3 | CC(=O)Nc1ccc(Cl)cc1N1CCC(n2c(=N)n(Cc3cccc4[nH]nnc34)c3ccc(F)cc32)CC1 [Example 63, N-(2-{4-[3-(1H-Benzotriazol-4-ylmethyl)-6-fluoro-2-imino-2,3-dihydro-benzoimidazol-1-yl]-piperidin-1-yl}-4-chloro-phenyl)-acetamide] | 22
4 | CC(=O)Nc1ccc(C)cc1N1CCC(n2c(=N)n(Cc3ccccc3Cl)c3ccccc32)CC1 [Example 56.5, N-(2-{4-[3-(2-Chloro-benzyl)-2-imino-2,3-dihydro-benzoimidazol-1-yl]-piperidin-1-yl}-4-methyl-phenyl)-acetamide] | 51
5 | CC(=O)/N=c1\n(Cc2cccc3[nH]ccc23)c2ccccc2n1C1CCN(c2cc(C)ccc2NC(C)=O)CC1 [Example 66, N-(2-{4-[2-Acetylimino-3-(1H-indol-4-ylmethyl)-2,3-dihydro-benzoimidazol-1-yl]-piperidin-1-yl}-4-methyl-phenyl)-acetamide] | 180
6 | CC(=O)Nc1ccc(Cl)nc1N1CCC(n2c(=N)n(Cc3ccccc3Cl)c3ccc(F)cc32)CC1 [Example 77, N-{6′-Chloro-4-[3-(2-chloro-benzyl)-6-fluoro-2-imino-2,3-dihydro-benzoimidazol-1-yl]-3,4,5,6-tetrahydro-2H-[1,2′]bipyridinyl-3′-yl}-acetamide] | 68
7 | CC(=O)Nc1ccccc1N1CCC(n2c(=N)n(Cc3cccc4[nH]ccc34)c3ccccc32)CC1 [Example 56.2, N-(2-{4-[2-Imino-3-(1H-indol-4-ylmethyl)-2,3-dihydro-benzoimidazol-1-yl]-piperidin-1-yl}-phenyl)-acetamide] | 42
8 | CC(=O)/N=c1\n(Cc2ccccc2Cl)c2ccccc2n1C1CCN(c2cc(Cl)ccc2NC(C)=O)CC1 [Example 59, N-(2-{4-[2-Acetylimino-3-(2-chloro-benzyl)-2,3-dihydro-benzoimidazol-1-yl]-piperidin-1-yl}-4-chloro-phenyl)-acetamide] | 407
9 | CC(=O)Nc1ccc(C(F)(F)F)cc1N1CCC(n2c(=N)n(Cc3cccc4[nH]nnc34)c3ccc(F)cc32)CC1 [Example 56.14, N-(2-{4-[3-(1H-Benzotriazol-4-ylmethyl)-6-fluoro-2-imino-2,3-dihydro-benzoimidazol-1-yl]-piperidin-1-yl}-4-trifluoromethyl-phenyl)-acetamide] | 23
10 | CC(=O)Nc1ccc(C)nc1N1CCC(n2c(=N)n(Cc3ccccc3Cl)c3ccc(F)cc32)CC1 [Example 78, N-{4-[3-(2-Chloro-benzyl)-6-fluoro-2-imino-2,3-dihydro-benzoimidazol-1-yl]-6′-methyl-3,4,5,6-tetrahydro-2H-[1,2′]bipyridinyl-3′-yl}-acetamide] | 62
11 | CC(=O)Nc1ccc(C#N)cc1N1CCC(n2c(=N)n(Cc3cccc4[nH]ccc34)c3ccccc32)CC1 [Example 56.4, N-(4-Cyano-2-{4-[2-imino-3-(1H-indol-4-ylmethyl)-2,3-dihydro-benzoimidazol-1-yl]-piperidin-1-yl}-phenyl)-acetamide] | 100
12 | CC(=O)Nc1ccc(C(F)(F)F)cc1N1CCC(n2c(=N)n(Cc3cccc4[nH]ccc34)c3ccccc32)CC1 [Example 56.3, N-(2-{4-[2-Imino-3-(1H-indol-4-ylmethyl)-2,3-dihydro-benzoimidazol-1-yl]-piperidin-1-yl}-4-trifluoromethyl-phenyl)-acetamide] | 52
